Where two headings read alike, the source gives them in different places.
Tests used:
[1] = Pharmacokinetic study in rats, plasma (LC/MS/MS, non-compartmental); format: in vivo, rat; conditions: for Vd/F / AUC(0-t) / CL/F / Cmax / MRT / half-life / Tmax: rat, plasma
Protocol: (§1) Blood samples were collected at 0 min (predose), 5 min, 15 min, 30 min, 60 min, 120 min, and 240 min after injections. The blood was collected from right ventricle under anesthesia using a mixture of ketamine (50 mg/kg)/xylasine (8 mg/kg) in the ratio of 3:1, and 0.025 mL of a mixture for 10 g body weight was injected i.p. 10 min before planned blood collection. Blood and brain samples were collected under general anesthesia induced by i.p. injections of ketamine (50 mg/kg)/xylasine (8 mg/kg). The blood samples were taken into heparinized tubes, immediately centrifuged at 3500 rpm for 10 min, and plasma was collected. After the blood was drawn, the rat’s spinal cord was cut and the cerebral tissue was removed, and after dissection washed in PBS saline. The brain and plasma samples were immediately frozen at − 80 °C for LC/MS/MS analysis.
(§2) Pharmacokinetic parameters were calculated by a non-compartmental approach from the average concentration values, using Phoenix WinNonlin software (Certara, Princeton, NJ 08540 USA). First order elimination rate constant (λz) was calculated by linear regression of time versus log concentration.
(§3) The quantification of studied compounds in plasma and brain samples was done using HPLC Agilent 1100 system (Agilent Technologies, Waldbronn, Germany) coupled to the triple quadrupole mass spectrometer API 2000 (ABSciex, Framingham, Massachusetts, USA) equipped with an electrospray ion source. After preparation, the samples were injected (20 μL) onto XBridge C18 (2.1 mm × 30 mm, 3.5 μm, Waters, Milford, Massachusetts, USA) analytical column. The mobile phase consisted of ACN with 0.1% formic acid (A) and water with 0.1% formic acid (B) were delivered in gradient elution started with 90% of eluent B, increasing during 2 min to 90% of eluent A, maintained to 3 min, and then returned during 5 min to 90% of eluent B, and maintained 90% of eluent B during 5 min at a flow rate of 300 μL/min. The total time of analysis was 15 min. Electrospray ionization process was performed in positive ionization and the data acquisition was carried out in multiple reaction monitoring mode (MRM) for EMD386088 and its internal standard (nebivolol). The ion spray source settings were as follows: spray voltage: 5 kV, heater temperature: 350 °C, curtain gas: 15 psi, source gas 1: 35 psi, source gas 2: 10 psi. The ions measured were m/z 247.3 (Q1) and m/z 168.2 (Q3) for EMD386088, and m/z 406.2 (Q1) and m/z 151.1 (Q3) for IS.
(§4) A sample volume of 50 μL of plasma or brain homogenate was transferred into the clean Eppendorf tube and spiked with 5 μL of IS solution (1 μg/mL) obtaining the final concentration of 100 ng/mL. After 5 min of mixing (1500 rpm), proteins were precipitated using 150 μL ACN. After 10 min of samples shaking (1500 rpm), the incubation step was performed (10 min, 4 °C). Next, samples were centrifuged (10,000 rpm, 10 min, 4 °C) and the supernatant was transferred into chromatographic vial for LC/MS/MS analysis. The brain homogenate was prepared maintaining the tissue: phosphate-buffered saline (PBS) at a ratio of 1:5. The homogenization was carried out employing IKA® T10 Basic ULTRA-TURRAX disperser (IKA Werke GmbH & Co. KG, Staufen, Germany). After homogenization, 50 μL of sample was collected for further preparation. All samples were stored on ice during the preparation process.

rats = test: Modified forced swim test (FST) in rats; format: in vivo, rat; conditions: EMD386088 alone 2.5 mg/kg i.p.
Protocol: […]. All drugs were dissolved in distilled water immediately before administration in a volume of 2 mL/kg. All the compounds were administered intraperitoneally (i.p.). […] Control animals received vehicle according to the same schedule.
The experiment was carried out according to the modified by Detke et al. ([1995]) method of Porsolt et al. ([1978]). On the first day of an experiment, the animals were gently individually placed in Plexiglas cylinders (40 cm high, 18 cm in diameter) containing 30 cm of water maintained at 23–25 °C for 15 min. On removal from water, the rats were placed for 30 min in a Plexiglas box under 60-W bulb to dry. On the following day (24 h later), the rats were re-placed in the cylinder and the total duration of immobility, swimming, and climbing was recorded during the whole 5-min test period. The swimming behavior entailed active swimming motions, e.g., moving horizontally around in the cylinder. Climbing activity consisted of upward directed movements of the forepaws along the side of the swim chamber, and immobility was assigned when no additional activity was observed other than that necessary to keep the rat’s head above the water (Detke et al. [1995]). Fresh water was used for each animal.
The data of behavioral studies were evaluated using two-way analysis of variance (ANOVA) followed by Bonferroni’s post hoc test, p < 0.05 was considered significant.

[2] = Distribution of EMD386088 in rats' brain (LC/MS/MS, non-compartmental); format: in vivo, rat
Protocol: as §1, §2, §3, §4

α1-adrenoceptors = system: α1-adrenoceptors; set-up: method as in Jastrzębska-Więsek et al. [2013]; conditions: ref Jastrzębska-Więsek et al. [2013]; cited from earlier work
opioid μ receptors = system: opioid μ receptors; set-up: method as in Jastrzębska-Więsek et al. [2013]; conditions: ref Jastrzębska-Więsek et al. [2013]; cited from earlier work
dopamine D2 = system: dopamine D2; set-up: method as in Jastrzębska-Więsek et al. [2013]; conditions: ref Jastrzębska-Więsek et al. [2013]; cited from earlier work
[3] = ip, 2.5 mg/kg, rat plasma, EMD386088 2.5 mg/kg i.p. alone
[4] = ip, 2.5 mg/kg, rat plasma, EMD386088 2.5 mg/kg i.p. jointly with imipramine (IMI) 15 mg/kg i.p.
[5] = ip, 5 mg/kg, rat plasma, EMD386088 5 mg/kg i.p. alone
[6] = rats, EMD386088 with imipramine vs alone
[7] = rat brain, EMD386088 2.5 mg/kg i.p. jointly with imipramine (IMI) 15 mg/kg i.p.
[8] = rat, brain, ip, 2.5 mg/kg, rat brain, EMD386088 2.5 mg/kg i.p. alone
[9] = rat, brain, ip, 2.5 mg/kg, rat brain, EMD386088 2.5 mg/kg i.p. jointly with imipramine (IMI) 15 mg/kg i.p.
[10] = rat, brain, ip, 5 mg/kg, rat brain, EMD386088 5 mg/kg i.p. alone

## Cc1[nH]c2ccc(Cl)cc2c1C1=CCNCC1.Cl [EMD386088, 5-chloro-2-methyl-3-(1,2,3,6-tetrahydro-4-pyridinyl)-1H-indole hydrochloride]
[1]; intraperitoneal, rats, EMD386088 2.5 mg/kg coadministered with imipramine 15 mg/kg, read-out: volume of distribution V d/F
  Vd/F: 32.2 L/kg
[1]; [3]
  AUC(0-t): 36.8 ng·h/mL
  CL/F: 1050 mL/min/kg
  Cmax: 22.9 ng/mL
  MRT: 1.31 h
[1]; ip, 2.5 mg/kg, rat plasma, EMD386088 2.5 mg/kg i.p. alone, read-out: V d/F
  Vd/F: 102 L/kg
[1]; ip, 2.5 mg/kg, rat plasma, EMD386088 2.5 mg/kg i.p. alone, read-out: t1/2
  half-life: 1.12 h
[1]; ip, 2.5 mg/kg, rat plasma, EMD386088 2.5 mg/kg i.p. alone, read-out: t max (converted)
  Tmax: 0.0833 h
[1]; [4]
  AUC(0-t): 125 ng·h/mL
  CL/F: 289 mL/min/kg
  Cmax: 49 ng/mL
  MRT: 1.55 h
[1]; ip, 2.5 mg/kg, rat plasma, EMD386088 2.5 mg/kg i.p. jointly with imipramine (IMI) 15 mg/kg i.p., read-out: V d/F
  Vd/F: 32.2 L/kg
[1]; ip, 2.5 mg/kg, rat plasma, EMD386088 2.5 mg/kg i.p. jointly with imipramine (IMI) 15 mg/kg i.p., read-out: t1/2
  half-life: 1.28 h
[1]; ip, 2.5 mg/kg, rat plasma, EMD386088 2.5 mg/kg i.p. jointly with imipramine (IMI) 15 mg/kg i.p., read-out: t max (converted)
  Tmax: 1 h
[1]; [5]
  AUC(0-t): 75.5 ng·h/mL
  CL/F: 1040 mL/min/kg
  Cmax: 45.2 ng/mL
  MRT: 1.3 h
[1]; ip, 5 mg/kg, rat plasma, EMD386088 5 mg/kg i.p. alone, read-out: V d/F
  Vd/F: 97.1 L/kg
[1]; ip, 5 mg/kg, rat plasma, EMD386088 5 mg/kg i.p. alone, read-out: t1/2
  half-life: 1.08 h
[1]; ip, 5 mg/kg, rat plasma, EMD386088 5 mg/kg i.p. alone, read-out: t max (converted)
  Tmax: 0.0833 h
[1]; ip, 5 mg/kg, rats, EMD386088 alone (2.5 and 5 mg/kg) i.p., read-out: t 1/2 (terminal half-life)
  half-life: 1.12 h
[1]; ip, 5 mg/kg, rats, EMD386088 alone (2.5 and 5 mg/kg) i.p., read-out: t max (time to maximum concentration in the blood) (converted)
  Tmax: 0.0833 h
[1]; ip, rats, EMD386088 alone i.p., read-out: volume of distribution V d/F
  Vd/F: 102 L/kg
[1]; [6]
  change of area under the concentration-time curve (AUC) on coadministration with imipramine: increased three times
  change of volume of distribution on coadministration with imipramine: decreased three times
rats
  activity in the FST: not active
[2]; ip, rat brain, EMD386088 2.5 mg/kg i.p. alone, read-out: t max (converted)
  Tmax: 2 h
[2]; ip, rat brain, EMD386088 5 mg/kg i.p. alone, read-out: t max (converted)
  Tmax: 2 h
[2]; rat brain, EMD386088 2.5 mg/kg i.p. alone
  AUC0 → t: 41,936.2 ng ⋅ min/g
[2]; [7]
  AUC0 → t: 56,428.6 ng ⋅ min/g
  Tmax: 2 h
[2]; rat brain, EMD386088 5 mg/kg i.p. alone
  AUC0 → t: 84,462.8 ng ⋅ min/g
[2]; [8]
  Cmax: 321 ng/g
  MRT: 1.9 h
[2]; [9]
  Cmax: 277 ng/g
  MRT: 2.12 h
[2]; [10]
  Cmax: 640 ng/g
  MRT: 1.91 h
[2]; rat, brain, ip, rats, EMD386088 2.5 mg/kg i.p. alone, calculated on the basis of AUC0 → t values, read-out: brain/plasma ratio
  Kp: ~19
[2]; rat, brain, ip, rats, after i.p. administration, read-out: t max in the brain (converted)
  Tmax: 2 h
[2]; [6]
  decrease in penetration on coadministration with imipramine: 2.5 fold
α1-adrenoceptors
  affinity for α1-adrenoceptors: no affinity
Opioid μ receptors
  affinity for opioid μ receptors: no affinity
Dopamine D2
  affinity for dopamine D2: no affinity
